Data set [1] relates to E. coli K12 knockout pool (BacPool) and wild type. The data set can be described thus: Prodrug screen, growth/no growth of BacPool knockout mix versus wild type. The format is cell-based. As to conditions: compounds at about 46-50 μg/ml, OD600 after overnight incubation. From the text: A complete, ordered E. coli K12 knockout library of 4320 genes and predicted ORFs (the Keio library) was used (Baba et al. (2006). Mol. Systems Biol. 2:2006.0008). The knockouts were constructed using the Wanner method with a kanamycin cassette replacing the ORFs (Datsenko et al. (2000) Proc. Natl. Acad. Sci. USA 97:6640-6645). All strains of this library were combined in a mix BacPool1) for screening. This permitted screening of the library against all strains simultaneously, instead of screening a full industry-size library against each of the individual E. coli 4×10^3 knockout strains.
The library mix was prepared by first culturing all strains overnight in LB medium, and then adding equal aliquots into a tube. This material was then mixed, dispensed in vials and stored at −80° C. For the screen, one vial was thawed, diluted to 10^5 cells/ml in LB, and dispensed into 384 well microtiter plates. The compounds were added from DMSO stocks at a final concentration of 46 μg/ml. The same compounds were added to plates containing the wild type isogenic control. Screening was performed at the Harvard NSRB/NERCE screening facility that host a collection of 150,000 compounds (see Tables 1A and 1B). All screens at NSRB/NERCE were performed in duplicate, which strongly decreases the rate of false positives and negatives. For each tested molecule there are three possible scenarios when scoring for growth/no growth:
Growth in both the BacPool and K12 wells: indicates lack of antimicrobial activity;
Growth inhibition in both the BacPool and K12 wells: a possible antibiotic (direct activity) or generally toxic compound is present, but is not a prodrug; or
Growth of a BacPool well and no growth of the K12 well: a prodrug hit.
After an overnight incubation of plates at 37° C., the plates were read at OD600. Compounds that had no effect on the growth of the mix and inhibited the growth of the wild type were recorded as hits. The wells with growth indicated a prodrug hit that is not converted into a drug by a particular deletion mutant in the mix. The mutant strain is then identified in a secondary screen (see Example 2).
Yet another screen was performed on 147,500 compounds, using the protocol described below. […]
An E. coli KanR culture was grown in LB broth containing 50 μg/ml Kanamycin for 20 hrs at 37° C. in a shaking incubator. […] The plates were then incubated for 20 hrs at 37° C., and then the plates were read for Optical Density at 600 nm and were scored for growth/no growth. […]
Hits were identified by calculating the % of inhibition of growth of E. coli measured by OD600. The data were analyzed as follows: negative controls (N), positive controls (P), and compounds (X) ODs were separately averaged and the resulting means were used to calculate % of inhibition of E. coli growth: […]

Data set [2] deals with E. coli strains overexpressing NfnB+ and NfsA+. The data set is described as follows: MIC, validation of screen hits, overexpression strains. The format is cell-based. As to the method: (§1) To validate the screening, the activity of nitazole against strains with nitrate reductases deleted and in strains overexpressing nitrate reductases were tested. A prodrug activated by a nitrate reductase has lower activity against a strain lacking the enzyme, and a higher activity in an overexpression strain, as compared to a wild type. E. coli has two known […], NfnB and NfsA. Strains tested were wild type (WT) E. coli, two knockout strains lacking the 2 nitroreductases (NfnB−; NfsA−), and against two strains overexpressing the same enzymes (NfnB+ and NfsA+). MIC values for nitazole are shown below.

For data set [3], the system named is E. coli knockout strains lacking the 2 nitroreductases (NfnB−; NfsA−). The data set can be described thus: MIC, validation of screen hits, knockout strains. The format is cell-based. As to the method:
as §1

Another data set relates to wild type (WT) E. coli. The data set can be described thus: MIC, validation of screen hits. The format is cell-based. As to the method: as §1
A further data set has as its system E. coli K12. The data set is described as follows: Growth/no growth control wells (Z′-factor), OD600. The data set is classed as cell-based. As to the method:
The general procedure to establish the Z′-factor was tested. Since the output of the screening is a typical growth/no growth assay, this was performed by comparing growth in control wells to those containing a model antimicrobial, ciprofloxacin at 30 μg/ml. E. coli K12 were cultured in LB medium, and exponentially-growing cells were dispensed at 10^6/ml in 384-well microtiter plates, 30 μl/well. Six plates were used in this experiment. Ciprofloxacin was added to half of the wells (3 μl in LB, bringing the final volume to 33 μl). After an overnight incubation at 37 C, the OD600 of the plates were read, and the values of each well were used to calculate Z′-factor: Z′=1−(3SD++3SD−)/IAve+−Ave−I, where: SD+=positive control standard deviation; SD−=negative control standard deviation; Ave+=positive control average; and Ave−=negative control average). The following table for Z′-factor interpretation was used:
Before beginning the screen, a Z′-test was run. This was conducted by comparing growth in negative control wells to those with the prodrug AZT at 5 μg/ml. E. coli K12 cells were cultured in LB medium, and exponentially-growing cells were dispensed at 10^5/ml in 384-well microtiter plates, 30 μl/well. Four plates were used in this experiment. After an overnight incubation at 37° C., the OD600 of the plates were read, and the values of each well were used to calculate Z′-factor: […]

The conditions of data set [4]: Schulz et al. (1997); cited from earlier work.
For data set [5], the system named is P. aeruginosa. The data set can be described thus: MIC. The data set is classed as cell-based. As to conditions: Pseudomonas aeruginosa; 1×MIC.
The subject of data set [6] is P. aeruginosa. The data set is described as follows: Killing of logarithmic, stationary and biofilm cultures, colony count. The format is cell-based. The conditions noted are these: for percentage of live cells: 5 μg/ml, 6 hrs. As to the method: Persister cells in planktonic and biofilm populations are characterized for their antibiotic sensitivity in this example. Several bactericidal antimicrobials were chosen to test the resistance of P. aeruginosa to killing—ofloxacin, a fluoroquinolone; tobramycin, an aminoglycoside; carbenicillin, a β-lactam; and peracetic acid, a disinfectant oxidant (Spoering et al. (2001) J. Bacteriol. 183:6746-6751). Biofilms were grown essentially by the method of Ceri (Ceri et al. (1999) J. Clin. Microbiol. 37:1771-1776) and as described in Brooun et al. (2000) Antimicrob. Agents Chemother. 44:640-646. The device used for biofilm formation is a platform carrying 96 polystyrene pegs that fit in a microtiter plate. Preformed biofilms were incubated in the presence of an antimicrobial agent, and survival was measured after disrupting the biofilms by colony count.
Logarithmic state, stationary and biofilm cultures were challenged with carbenicillin. Carbenicillin is a bactericidal antibiotic that, similarly to most β-lactams, only kills rapidly growing cells (Tuomanen et al. (1986) Scand. J. Gastroenterol. Suppl:10-14). […] The amount of killing of logarithmic cells approached a plateau at concentrations above 1.67×MIC, indicating the presence of a persister subpopulation. These 0.1% cells in the rapidly growing logarithmic culture were invulnerable to killing by carbenicillin at 600 μg/ml.
Unlike carbenicillin, ofloxacin can kill non-growing cells (Brooun et al. (2000) Antimicrob. Agents Chemother. 44:640-646). Logarithmic, stationary and biofilm cultures were challenged with ofloxacin over a wide range of concentrations, from 1×MIC (0.5 μg/ml) to 30×MIC (15 μg/ml). After a 6 hrs incubation time with the antibiotic, viability was determined by colony count. The majority of cells in the three populations examined were killed at low concentrations of ofloxacin (FIG. 3B). The killing in all three cultures was distinctly biphasic, indicating the presence of persister cells. The levels of persisters were dramatically higher in the dense stationary planktonic and biofilm cultures as compared to logarithmic cells. […] At 5 μg/ml ofloxacin, which is the clinically achievable concentration (Schulz et al. (1997) Pharmazie 52:895-911), the percentage of live cells was 0.001% in the logarithmic population, 0.1% in the biofilm and 2.5% in the stationary culture (FIG. 3B).
Tobramycin at 50 μg/ml (the maximal clinically achievable concentration is 10 μg/ml), (Schulz et al. (1997) Pharmazie 52:895-911) eliminated 90% of the biofilm cells, and the remaining population declined gradually with increasing amounts of the antibiotic. At high concentrations surviving persisters became apparent. Tobramycin was ineffective against stationary planktonic cells, apparently due to the dependence of killing of growth.
Peracetic acid, an oxidizing disinfectant, was used in order to test the ability of a sterilizing agent to act against persisters. […] Similar results showing biphasic killing, and high level of persisters in stationary and biofilm populations, also were obtained with S. aureus and E. coli (Keren et al. (2004) FEMS Microbiol. Lett. 230:13-18).

Results on six compounds are retold here after patent US20110046142A1, “ANTIBIOTIC COMPOUNDS” (priority 2007, published 2011).

Values after ≈ are worked out from the molar mass of the structure shown. Read-outs that look alike come from different tables or passages of the source.

On to `CC(=O)Nc1ncc([N+](=O)[O-])s1` [nitazole, Acetamide, N-(5-nitro-2-thiazolyl)-(8CI,9CI)], for which the “screen outcome (prodrug hit / direct activity)” value in data set [1] is listed as “prodrug hits”. The MIC (commonly the smallest concentration in the dilution series that meets the test's criterion for growth inhibition) came to 1.6 µg/mL (≈ 8.55 µM) in data set [2] (Escherichia coli, NfnB+); 6.3 µg/mL (≈ 33.7 µM) in data set [2] (Escherichia coli, NfsA+); 25 µg/mL (≈ 134 µM) in data set [3] (Escherichia coli); 25 µg/mL (≈ 134 µM) in data set [3] (NfsA−); 12.5 µg/mL (≈ 66.8 µM) in the data set with wild type (WT) E. coli (Escherichia coli, read-out: MIC).

Consider `Cc1cn([C@H]2C[C@H](N=[N+]=[N-])[C@@H](CO)O2)c(=O)[nH]c1=O` [zidovudine], for which the “screen outcome (prodrug hit / direct activity)” value in data set [1] is “prodrug hits”. The “inhibition of E. coli growth” value in the data set on E. coli K12 (positive control at 5 μg/ml) is given as “complete inhibition”.

In the case of `O=C(O)c1cn(C2CC2)c2cc(N3CCNCC3)c(F)cc2c1=O` [ciprofloxacin], the “growth in wells with antibiotic” value with E. coli K12 (30 μg/ml, overnight at 37 C) is on record as “no case of substantial growth”.

In the case of `NC[C@H]1O[C@H](O[C@H]2[C@H](O)[C@@H](O[C@H]3O[C@H](CO)[C@@H](O)[C@H](N)[C@H]3O)[C@H](N)C[C@@H]2N)[C@H](N)C[C@@H]1O` [tobramycin], the “(maximal) clinically achievable concentration” value in data set [4] is 10 µg/mL. In the data set on P. aeruginosa [5], this compound displayed an MIC of 1 µg/mL (≈ 2.14 µM). This compound also gave a biofilm cells eliminated in the data set with P. aeruginosa [6] (biofilm, 50 μg/ml) of 90%. In addition, the logarithmic persisters entry in the data set with P. aeruginosa [6] (logarithmic cells, 1 to 1500 μg/ml) is “no logarithmic persisters were detected”. For the same compound, in the data set on P. aeruginosa [6] (stationary planktonic cells), the “killing of stationary cells” value is reported as “ineffective”.

Consider “benzoxazole, 2,3-dihydro-5-nitro-2-(5-nitro-2-thienyl)-(9CI)”, for which the “screen outcome (prodrug hit / direct activity)” value in data set [1] is “prodrug hit”. Further, the MIC worked out at 3.1 µg/mL in data set [2] (NfnB+); 6.3 µg/mL in data set [2] (NfsA+); 25 µg/mL in data set [3] (NfnB−); 25 µg/mL in data set [3] (NfsA−); 12.5 µg/mL against wild type (WT) E. coli.

Take `CC1COc2c(N3CCN(C)CC3)c(F)cc3c(=O)c(C(=O)O)cn1c23` (stereo not shown) [ofloxacin]: the “(maximal) clinically achievable concentration” value in data set [4] is 5 µg/mL. In addition, the MIC in the data set on P. aeruginosa [5] was 0.5 µg/mL (≈ 1.38 µM). The “percentage of live cells” value amounted to 0.1% in the data set on P. aeruginosa [6] (biofilm), 0.001% with P. aeruginosa [6] (logarithmic population) and 2.5% with P. aeruginosa [6] (stationary culture).
